Patent US9029404B2, “Apoptosis-inducing agents for the treatment of cancer and immune and autoimmune diseases” (AbbVie Inc., priority 2008, dated 2015)

Target: GST-Bcl-2 (Homo sapiens, UniProt P10415)
Test: Time Resolved-Fluorescence Resonance Energy Transfer (TR-FRET) Bcl-2 binding assay
Conditions: competition with F-Bak peptide probe (100 nM); GST-Bcl-2 1 nM; Tb-anti-GST 1 nM; 3 hours at room temperature; Wang's equation
Description: Determination of the utility of compounds having Formula (I) as binders to and inhibitors of anti-apoptotic Bcl-2 proteins was performed using the Time Resolved-Fluorescence Resonance Energy Transfer (TR-FRET) Assay. Tb-anti-GST antibody was purchased from Invitrogen (Catalog No. PV4216).
(§1) Representative compounds were serially diluted in dimethyl sulfoxide (DMSO) starting at 50 μM (2× starting concentration; 10% DMSO) and 10 μL were transferred into a 384-well plate. The samples are then mixed on a shaker for 1 minute and incubated for an additional 3 hours at room temperature. For each assay, the probe/antibody and protein/probe/antibody were included on each assay plate as negative and positive controls, respectively. Fluorescence was measured on the Envision (Perkin Elmer) using a 340/35 nm excitation filter and 520/525 (F-Bak peptide) and 495/510 nm (Tb-labeled anti-Histidine antibody) emission filters.
as §1, with “The” for “Representative compounds were serially diluted in dimethyl sulfoxide (DMSO) starting at 50 μM (2× starting concentration; 10% DMSO) and 10 μL were transferred into a 384-well plate. The”, “were” for “are”
The inhibition constant (Ki) is the dissociation constant of an enzyme-inhibitor complex or a protein/small molecule complex, wherein the small molecule is inhibiting binding of one protein to another protein. So a large Ki value indicates a low binding affinity and a small Ki value indicates a high binding affinity.

Chain of GST-Bcl-2 (P10415 whole entry): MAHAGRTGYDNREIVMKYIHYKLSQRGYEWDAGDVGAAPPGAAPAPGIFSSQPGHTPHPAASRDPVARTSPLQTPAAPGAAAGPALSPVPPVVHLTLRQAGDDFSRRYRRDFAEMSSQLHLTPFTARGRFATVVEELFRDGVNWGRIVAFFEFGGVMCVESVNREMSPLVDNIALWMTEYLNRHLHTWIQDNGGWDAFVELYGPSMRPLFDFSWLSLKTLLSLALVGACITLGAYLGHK

Row | Molecule | Ki [pM]
1 | 2-[(6-amino-5-chloropyridin-3-yl)oxy]-4-(4-{[2-(4-chlorophenyl)-4,4-dimethylcyclohex-1-en-1-yl]methyl}piperazin-1-yl)-N-{[4-({[4-({[4-(methoxymethyl)cyclohexyl]methyl}amino)-3-nitrophenyl]sulfonyl}amino)-3-nitrophenyl]sulfonyl}benzamide [Example 454] | 24
2 | CN1CCC(C)(Nc2ccc(S(=O)(=O)NC(=O)c3ccc(N4CCN(CC5=C(c6ccc(Cl)cc6)CC(C)(C)CC5)CC4)cc3Oc3ccccc3Cl)cc2[N+](=O)[O-])CC1 [Example 168, 2-(2-chlorophenoxy)-4-(4-{[2-(4-chlorophenyl)-4,4-dimethylcyclohex-1-en-1-yl]methyl}piperazin-1-yl)-N-({4-[(1,4-dimethylpiperidin-4-yl)amino]-3-nitrophenyl}sulfonyl)benzamide] | 28300
3 | CC1(C)CC(c2ccc(Cl)cc2)=C(CN2CCN(c3ccc(C(=O)NS(=O)(=O)c4ccc(OCC5(F)CCOCC5)c([N+](=O)[O-])c4)c(Oc4cc5cc[nH]c5cc4F)c3)CC2)CO1 [Example 297, 4-(4-{[4-(4-chlorophenyl)-6,6-dimethyl-5,6-dihydro-2H-pyran-3-yl]methyl}piperazin-1-yl)-2-[(6-fluoro-1H-indol-5-yl)oxy]-N-({4-[(4-fluorotetrahydro-2H-pyran-4-yl)methoxy]-3-nitrophenyl}sulfonyl)benzamide] | < 10
4 | CC1(C)CCC(CN2CCN(c3ccc(C(=O)NS(=O)(=O)c4ccc(NC[C@H]5CC[C@H](C#N)CC5)c([N+](=O)[O-])c4)c(Oc4cnc(N)c(Cl)c4)c3)CC2)=C(c2ccc(Cl)cc2)C1 [Example 401, Trans-2-[(6-amino-5-chloropyridin-3-yl)oxy]-4-(4-{[2-(4-chlorophenyl)-4,4-dimethylcyclohex-1-en-1-yl]methyl}piperazin-1-yl)-N-[(4-{[(4-cyanocyclohexyl)methyl]amino}-3-nitrophenyl)sulfonyl]benzamide] | 35
5 | CC1(C)CCC(CN2CCN(c3ccc(C(=O)NS(=O)(=O)c4ccc(OCC5(F)CCOCC5)c(Cl)c4)c(Oc4cc5cc[nH]c5cc4F)c3)CC2)=C(c2ccc(Cl)cc2)C1 [Example 412, N-({3-chloro-4-[(4-fluorotetrahydro-2H-pyran-4-yl)methoxy]phenyl}sulfonyl)-4-(4-{[2-(4-chlorophenyl)-4,4-dimethylcyclohex-1-en-1-yl]methyl}piperazin-1-yl)-2-[(6-fluoro-1H-indol-5-yl)oxy]benzamide] | 1120
6 | CC1(C)CC(c2ccc(Cl)cc2)=C(CN2CCN(c3ccc(C(=O)NS(=O)(=O)c4ccc(OCC5(F)CCOCC5)c(Cl)c4)c(Oc4cc5cc[nH]c5cc4F)c3)CC2)CO1 [Example 413, N-({3-chloro-4-[(4-fluorotetrahydro-2H-pyran-4-yl)methoxy]phenyl}sulfonyl)-4-(4-{[4-(4-chlorophenyl)-6,6-dimethyl-5,6-dihydro-2H-pyran-3-yl]methyl}piperazin-1-yl)-2-[(6-fluoro-1H-indol-5-yl)oxy]benzamide] | 739
7 | CC1(C)CCC(CN2CCN(c3ccc(C(=O)NS(=O)(=O)c4cnc(OC[C@H]5CC[C@H](O)CC5)c(Cl)c4)c(Oc4cc(F)cc5[nH]ncc45)c3)CC2)=C(c2ccc(Cl)cc2)C1 [Example 414, N-({5-chloro-6-[(trans-4-hydroxycyclohexyl)methoxy]pyridin-3-yl}sulfonyl)-4-(4-{[2-(4-chlorophenyl)-4,4-dimethylcyclohex-1-en-1-yl]methyl}piperazin-1-yl)-2-[(6-fluoro-1H-indazol-4-yl)oxy]benzamide] | 14
8 | CC1(C)CCC(CN2CCN(c3ccc(C(=O)NS(=O)(=O)c4cnc(OCC5(F)CCOCC5)c(Cl)c4)c(Oc4cc(F)cc5[nH]ncc45)c3)CC2)=C(c2ccc(Cl)cc2)C1 [Example 415, N-({5-chloro-6-[(4-fluorotetrahydro-2H-pyran-4-yl)methoxy]pyridin-3-yl}sulfonyl)-4-(4-{[2-(4-chlorophenyl)-4,4-dimethylcyclohex-1-en-1-yl]methyl}piperazin-1-yl)-2-[(6-fluoro-1H-indazol-4-yl)oxy]benzamide] | 13
9 | CC(C)(C)OC(=O)N1CCC(c2ccc(Cl)cc2)=C(CN2CCN(c3ccc(C(=O)NS(=O)(=O)c4cnc(OCC5(F)CCOCC5)c(Cl)c4)c(Oc4cc5cc[nH]c5cc4F)c3)CC2)C1 [Example 416, tert-butyl 5-[(4-{4-[({5-chloro-6-[(4-fluorotetrahydro-2H-pyran-4-yl)methoxy]pyridin-3-yl}sulfonyl)carbamoyl]-3-[(6-fluoro-1H-indol-5-yl)oxy]phenyl}piperazin-1-yl)methyl]-4-(4-chlorophenyl)-3,6-dihydropyridine-1(2H)-carboxylate] | 7440
10 | O=C(NS(=O)(=O)c1cnc(OCC2(F)CCOCC2)c(Cl)c1)c1ccc(N2CCN(CC3=C(c4ccc(Cl)cc4)CCN(C(CF)CF)C3)CC2)cc1Oc1cc2cc[nH]c2cc1F [Example 417, N-({5-chloro-6-[(4-fluorotetrahydro-2H-pyran-4-yl)methoxy]pyridin-3-yl}sulfonyl)-4-(4-{[4-(4-chlorophenyl)-1-(1,3-difluoropropan-2-yl)-1,2,5,6-tetrahydropyridin-3-yl]methyl}piperazin-1-yl)-2-[(6-fluoro-1H-indol-5-yl)oxy]benzamide] | 6880
11 | CC1(C)CCC(CN2CCN(c3ccc(C(=O)NS(=O)(=O)c4ccc(NCC5(F)CCOCC5)c([N+](=O)[O-])c4)c(Oc4cc(F)cc5[nH]ncc45)c3)CC2)=C(c2ccc(Cl)cc2)C1 [Example 418, 4-(4-{[2-(4-chlorophenyl)-4,4-dimethylcyclohex-1-en-1-yl]methyl}piperazin-1-yl)-2-[(6-fluoro-1H-indazol-4-yl)oxy]-N-[(4-{[(4-fluorotetrahydro-2H-pyran-4-yl)methyl]amino}-3-nitrophenyl)sulfonyl]benzamide] | < 10
12 | CC1(C)CCC(CN2CCN(c3ccc(C(=O)NS(=O)(=O)c4cnc(OC[C@H]5CC[C@H](O)CC5)c(Cl)c4)c(Oc4ccc(F)c5[nH]ncc45)c3)CC2)=C(c2ccc(Cl)cc2)C1 [Example 419, N-({5-chloro-6-[(trans-4-hydroxycyclohexyl)methoxy]pyridin-3-yl}sulfonyl)-4-(4-{[2-(4-chlorophenyl)-4,4-dimethylcyclohex-1-en-1-yl]methyl}piperazin-1-yl)-2-[(7-fluoro-1H-indazol-4-yl)oxy]benzamide] | 12
13 | CC1(C)CCC(CN2CCN(c3ccc(C(=O)NS(=O)(=O)c4cnc(OCC5(F)CCOCC5)c(Cl)c4)c(Oc4ccc(F)c5[nH]ncc45)c3)CC2)=C(c2ccc(Cl)cc2)C1 [Example 420, N-({5-chloro-6-[(4-fluorotetrahydro-2H-pyran-4-yl)methoxy]pyridin-3-yl}sulfonyl)-4-(4-{[2-(4-chlorophenyl)-4,4-dimethylcyclohex-1-en-1-yl]methyl}piperazin-1-yl)-2-[(7-fluoro-1H-indazol-4-yl)oxy]benzamide] | < 10
14 | CC1(C)CCC(CN2CCN(c3ccc(C(=O)NS(=O)(=O)c4ccc(NCC5CN(C6COC6)CCO5)c([N+](=O)[O-])c4)c(Oc4cnc(N)c(Cl)c4)c3)CC2)=C(c2ccc(Cl)cc2)C1 (centres unmarked) [Example 421, 2-[(6-amino-5-chloropyridin-3-yl)oxy]-4-(4-{[2-(4-chlorophenyl)-4,4-dimethylcyclohex-1-en-1-yl]methyl}piperazin-1-yl)-N-{[3-nitro-4-({[4-(oxetan-3-yl)morpholin-2-yl]methyl}amino)phenyl]sulfonyl}benzamide] | < 10
15 | CC1(C)CCC(CN2CCN(c3ccc(C(=O)NS(=O)(=O)c4ccc(NCC5CN(C6COC6)CCO5)c([N+](=O)[O-])c4)c(Oc4cc5cc[nH]c5cc4F)c3)CC2)=C(c2ccc(Cl)cc2)C1 (centres unmarked) [Example 422, 4-(4-{[2-(4-chlorophenyl)-4,4-dimethylcyclohex-1-en-1-yl]methyl}piperazin-1-yl)-2-[(6-fluoro-1H-indol-5-yl)oxy]-N-{[3-nitro-4-({[4-(oxetan-3-yl)morpholin-2-yl]methyl}amino)phenyl]sulfonyl}benzamide] | < 10
16 | CC1(C)CCC(CN2CCN(c3ccc(C(=O)NS(=O)(=O)c4ccc(NCC5(F)CCOCC5)c([N+](=O)[O-])c4)c(Oc4ccc(F)c5[nH]ncc45)c3)CC2)=C(c2ccc(Cl)cc2)C1 [Example 423, 4-(4-{[2-(4-chlorophenyl)-4,4-dimethylcyclohex-1-en-1-yl]methyl}piperazin-1-yl)-2-[(7-fluoro-1H-indazol-4-yl)oxy]-N-[(4-{[(4-fluorotetrahydro-2H-pyran-4-yl)methyl]amino}-3-nitrophenyl)sulfonyl]benzamide] | < 10
17 | CC1(C)CCC(CN2CCN(c3ccc(C(=O)NS(=O)(=O)c4cnc(OCC5CCC(C)(O)CC5)c(Cl)c4)c(Oc4cc(F)cc5[nH]ncc45)c3)CC2)=C(c2ccc(Cl)cc2)C1 (stereo not drawn) [Example 424, N-({5-chloro-6-[(trans-4-hydroxy-4-methylcyclohexyl)methoxy]pyridin-3-yl}sulfonyl)-4-(4-{[2-(4-chlorophenyl)-4,4-dimethylcyclohex-1-en-1-yl]methyl}piperazin-1-yl)-2-[(6-fluoro-1H-indazol-4-yl)oxy]benzamide] | < 10
